Key:
HK301 = test: GI50 assay (Cell Titer Glo proliferation, 3 days); type: cell-based, human; conditions: Homo sapiens, 72 h; HK301, 3 days; read-out: HK301 GI50
GBM39 = test: GI50 assay (Cell Titer Glo proliferation, 3 days); type: cell-based, human; conditions: Homo sapiens, 72 h; GBM39, 3 days

SMILES | GI50 (HK301) [µM] | GI50 (GBM39) [µM]
C#Cc1cccc(N(C(=O)CCCCOC(=O)CCCCOC(=O)CCCCOC(C)=O)c2ncnc3cc(OCCOC)c(OCCOC)cc23)c1 [JGK009] | 6.1 | 14.6
O=C(Oc1cc2ncnc(Nc3cccc(Cl)c3F)c2cc1OC(=O)c1ccccc1)c1ccccc1 [JGK004] | 23.4 | 103
Brc1cccc(Nc2ncnc3cc4c(cc23)OCCO4)c1 [JGK073] | 2.06 | 6.07
Fc1cc(F)c(Nc2ncnc3cc4c(cc23)OCCO4)c(F)c1 [JGK029] | 24.4 | 34
COC1N=C(N(C(=O)OC(C)(C)C)c2cccc(Cl)c2F)c2cc3c(cc2N1C(=O)OC(C)(C)C)OCCO3 (centres unmarked) [JGK013] | 1.55 | 220
CN(C)CCC1COc2cc3c(Nc4cccc(Br)c4F)ncnc3cc2O1 (racemic) [JGK087, (±)-N-(3-Bromo-2-fluorophenyl)-8-[2-(dimethylamino)ethyl]-7,8-dihydro[1,4]dioxino[2,3-g]quinazolin-4-amine] | 3.74 | 5.26
CN1CCN(CC2COc3cc4ncnc(Nc5cccc(Cl)c5F)c4cc3O2)CC1 (racemic) [JGK075, (±)-N-(3-Chloro-2-fluorophenyl)-7-[(4-methylpiperazin-1-yl)methyl]-7,8-dihydro[1,4]dioxino [2,3-g]quinazolin-4-amine] | 1.18 | 4
COC(=O)[C@@H](N)Cc1ccc(Nc2ncnc3cc4c(cc23)OCCO4)cc1 [JGK016] | 4.05 | 61.6
FC(F)(F)c1c(Cl)cccc1Nc1ncnc2cc3c(cc12)OCCO3 [JGK017] | 64.2 | 97.6
N[C@H](Cc1ccc(Nc2ncnc3cc4c(cc23)OCCO4)cc1)C(=O)O [JGK021] | 481 | 556
[2H]C1([2H])Oc2cc3ncnc(Nc4cccc(Cl)c4F)c3cc2OC1([2H])[2H] [JGK036, N-(3-Chloro-2-fluorophenyl)(7,7,8,8-^2H4)-7,8-dihydro[1,4]dioxino[2,3-g]quinazolin-4-amine] | 1.05 | 4.51
Fc1ccc(Br)cc1Nc1ncnc2cc3c(cc12)OCCO3 [JGK055, N-(5-Bromo-2-fluorophenyl)-7,8-dihydro[1,4]dioxino[2,3-g]quinazolin-4-amine] | 0.29 | 0.966
N#Cc1cccc(Nc2ncnc3cc4c(cc23)OCCO4)c1F [JGK044, 3-[(7,8-Dihydro[1,4]dioxino[2,3-g]quinazolin-4-yl)amino]-2-fluorobenzonitrile] | 4.52 | 5.63
CC(C)(C)OC(=O)N(CCS(C)(=O)=O)Cc1ccc(-c2ccc3ncnc(Nc4ccc(OCc5cccc(F)c5)c(Cl)c4)c3c2)o1 [JGK008] | 81.3 | –
OC1COc2cc3ncnc(Nc4cccc(Br)c4F)c3cc2O1 (racemic) [JGK050, (±)-4-(3-Bromo-2-fluoroanilino)-7,8-dihydro[1,4]dioxino[2,3-g]quinazolin-7-ol] | 1.16 | 3.57
CC(=O)OCN(c1cccc(Cl)c1F)c1ncnc2cc3c(cc12)OCCO3 [JGK043, [(3-Chloro-2-fluorophenyl)(7,8-dihydro[1,4]dioxino[2,3-g]quinazolin-4-yl)amino]methyl acetate] | 0.745 | 1.78
Fc1c(Br)cc(Cl)cc1Nc1ncnc2cc3c(cc12)OCCO3 [JGK058, N-(3-Bromo-5-chloro-2-fluorophenyl)-7,8-dihydro[1,4]dioxino[2,3-g]quinazolin-4-amine] | 1.85 | 13
Oc1cc2ncnc(Nc3cccc(Cl)c3F)c2cc1O [JGK022] | 31.1 | 150
N#Cc1cccc(Nc2ncnc3cc4c(cc23)OCCO4)c1 [JGK045, 3-[(7,8-Dihydro[1,4]dioxino[2,3-g]quinazolin-4-yl)amino]benzonitrile] | 3.94 | 10.9
C#Cc1cccc(N(C(C)=O)c2ncnc3cc(OCCOC)c(OCCOC)cc23)c1 [JGK002] | 5.45 | 19.8
Fc1ccc(F)c(Nc2ncnc3cc4c(cc23)OCCO4)c1 [JGK026] | 6.12 | 16.5
Fc1c(Br)cccc1Nc1ncnc2cc3c(c(F)c12)OCCO3 [JGK072, N-(3-Bromo-2-fluorophenyl)-5-fluoro-7,8-dihydro[1,4]dioxino[2,3-g]quinazolin-4-amine] | 5.02 | 12
CN(C)CCC1COc2cc3ncnc(Nc4cccc(Br)c4F)c3cc2O1 (racemic) [JGK069, (±)-N-(3-Bromo-2-fluorophenyl)-7-[2-(dimethylamino)ethyl]-7,8-dihydro[1,4]dioxino[2,3-g]quinazolin-4-amine] | 0.659 | 2.17

SMILES | GI50 (HK301) [µM] | GI50 (GBM39) [µM]
Fc1c(Nc2ncnc3cc4c(cc23)OCCO4)ccc(Cl)c1Cl [JGK060, N-(3,4-Dichloro-2-fluorophenyl)-7,8-dihydro[1,4]dioxino[2,3-g]quinazolin-4-amine] | 2.95 | 3.5
C#Cc1cccc(Nc2ncnc3cc(OC(=O)c4ccccc4)c(OC(=O)c4ccccc4)cc23)c1 [JGK006] | 11 | 51.4
Fc1ccccc1Nc1ncnc2cc3c(cc12)OCCO3 [JGK035, N-(2-Fluorophenyl)-7,8-dihydro[1,4]dioxino[2,3-g]quinazolin-4-amine] | 4.04 | 10.7
Fc1c(F)c(F)c(Nc2ncnc3cc4c(cc23)OCCO4)c(F)c1F [JGK030] | 559 | 961
Fc1c(Cl)cccc1Nc1ncnc2cc3c(cc12)OCCCO3 [JGK040, N-(3-Chloro-2-fluorophenyl)-8,9-dihydro-7H-[1,4]dioxepino[2,3-g]quinazolin-4-amine] | 1.72 | 7.12
Fc1c(Br)cccc1Nc1ncnc2cc3c(cc12)OCC(CCN1CCCC1)O3 (racemic) [JGK089, (±)-N-(3-Bromo-2-fluorophenyl)-8-[2-(pyrrolidin-1-yl)ethyl]-7,8-dihydro[1,4]dioxino[2,3-g]quinazolin-4-amine] | 3.16 | 5.09
CN1CCN(CC2COc3cc4c(Nc5cccc(Br)c5F)ncnc4cc3O2)CC1 (racemic) [JGK078, (±)-N-(3-Bromo-2-fluorophenyl)-8-[(4-methylpiperazin-1-yl)methyl]-7,8-dihydro[1,4]dioxino[2,3-g]quinazolin-4-amine] | 2.03 | 5.76
OC[C@H]1COc2cc3ncnc(Nc4cccc(Br)c4F)c3cc2O1 [JGK082S] | 1.67 | 1.89
C[C@@H]1Oc2cc3ncnc(Nc4cccc(Br)c4F)c3cc2O[C@H]1C (racemic) [JGK059, (±)-trans-N-(3-Bromo-2-fluorophenyl)-7,8-dimethyl-7,8-dihydro[1,4]dioxino[2,3-g]quinazolin-4-amine] | 8.11 | 11.2
Fc1cccc(F)c1Nc1ncnc2cc3c(cc12)OCCO3 [JGK027] | 5.81 | 11.8
Fc1c(Nc2ncnc3cc4c(cc23)OCCO4)ccc(Br)c1Br [JGK054, N-(3,4-Dibromo-2-fluorophenyl)-7,8-dihydro[1,4]dioxino[2,3-g]quinazolin-4-amine] | 5.72 | 7.7
CC(=O)N(CCS(C)(=O)=O)Cc1ccc(-c2ccc3ncnc(N(C(C)=O)c4ccc(OCc5cccc(F)c5)c(Cl)c4)c3c2)o1 [JGK011] | 9.21 | 3.25
Fc1c(Nc2ncnc3cc4c(cc23)OCCO4)ccc(Cl)c1Br [JGK053, N-(3-Bromo-4-chloro-2-fluorophenyl)-7,8-dihydro[1,4]dioxino[2,3-g]quinazolin-4-amine] | 2.78 | 5.28
C#Cc1cccc(N(C(=O)OC(C)(C)C)C2=NC(OC)N(C(=O)OC(C)(C)C)c3cc(OCCOC)c(OCCOC)cc32)c1 (centres unmarked) [JGK001] | 2.21 | 19.7
Fc1c(Br)cccc1Nc1ncnc2cc3c(cc12)OC(CCN1CCCCC1)CO3 (racemic) [JGK085, (±)-N-(3-Bromo-2-fluorophenyl)-7-[2-(piperidin-1-yl)ethyl]-7,8-dihydro[1,4]dioxino[2,3-g]quinazolin-4-amine] | 1.02 | 2.62
Fc1c(Br)cccc1Nc1ncnc2cc3c(cc12)OC(CN1CCCCC1)CO3 (racemic) [JGK065, (±)-N-(3-Bromo-2-fluorophenyl)-7-[(piperidin-1-yl)methyl]-7,8-dihydro[1,4]dioxino[2,3-g]quinazolin-4-amine] | 3.43 | 7.34
Fc1c(Nc2ncnc3cc4c(cc23)OCCO4)cccc1C(F)(F)F [JGK039, N-[2-Fluoro-3-(trifluoromethyl)phenyl]-7,8-dihydro[1,4]dioxino[2,3-g]quinazolin-4-amine] | 3.61 | 7.82
CN(C)CC1COc2cc3c(Nc4cccc(Br)c4F)ncnc3cc2O1 (racemic) [JGK077, (±)-N-(3-Bromo-2-fluorophenyl)-8-[(dimethylamino)methyl]-7,8-dihydro[1,4]dioxino[2,3-g]quinazolin-4-amine] | 6.84 | 16.7
Fc1c(Cl)cccc1Nc1ncnc2cc3c(cc12)OCO3 [JGK041, N-(3-Chloro-2-fluorophenyl)-2H-[1,3]dioxolo[4,5-g]quinazolin-8-amine] | 1.66 | 6.04
Fc1c(Br)cccc1Nc1ncnc2cc3c(cc12)OC(CCN1CCCC1)CO3 (racemic) [JGK084, (±)-N-(3-Bromo-2-fluorophenyl)-7-[2-(pyrrolidin-1-yl)ethyl]-7,8-dihydro[1,4]dioxino[2,3-g]quinazolin-4-amine] | 1.83 | 5.64
CN1CCN(CCC2COc3cc4ncnc(Nc5cccc(Br)c5F)c4cc3O2)CC1 (racemic) [JGK070, (±)-N-(3-Bromo-2-fluorophenyl)-7-[2-(4-methylpiperazin-1-yl)ethyl]-7,8-dihydro[1,4]dioxino[2,3-g]quinazolin-4-amine] | 1.41 | 3.33
CCOC(=O)N(c1cccc(Cl)c1F)c1ncnc2cc3c(cc12)OCCO3 [JGK047, Ethyl (3-chloro-2-fluorophenyl)7,8-dihydro[1,4]dioxino[2,3-g]quinazolin-4-ylcarbamate] | 316 | –
C#Cc1cccc(N(C(=O)[C@H](Cc2ccccc2)NC(=O)OC(C)(C)C)c2ncnc3cc(OCCOC)c(OCCOC)cc23)c1 [JGK007] | 92.1 | –
